Data taken from article PMC8365601, “Terphenyl-Based Small-Molecule Inhibitors of Programmed Cell Death-1/Programmed Death-Ligand 1 Protein–Protein Interaction” (Journal of Medicinal Chemistry, 2021).

Columns and labels:
[1] = tested on: Jurkat-ECs alone or with CHO wt or CHO/TCRAct cells; experiment: ICB assay control where PD-L1 is absent; assay type: cell-based; conditions: 6 h; Figure S1
Description: The functional assay of the blockade of PD-1/PD-L1 interaction in vitro (PD-1/PD-L1 Blockade Bioassay, Promega) was performed according to the manufacturer’s protocol. CHO/TCRAct/PD-L1 cells or CHO/TCRAct or CHO-K1 cells were seeded on 96-well white plates at the density of 10,000 cells/well and the next day overlaid with Jurkat T cells (20,000 cells/well) in the presence of increasing concentrations of the compounds with DMSO only as a control (the concentration of DMSO was kept constant at 0.1%) or atezolizumab, as a positive control, anti-PD-L1 monoclonal antibody (Selleckchem). The 2.5-fold dilutions of atezolizumab were prepared in the assay buffer (RPMI 1640 + 1% FBS) on the day of the assay. Activation of the Jurkat T cells, reflected by luciferase activity, was monitored by luminescence measurements after 6 h of incubation (37 °C, 5% CO2), and 20 min of additional incubation with the Bio-Glo assay reagent (Promega) at room temperature. The luminescence was read on a Spark microplate reader (Tecan). The data are presented as fold induction of the luminescence signal relative to either untreated (for atezolizumab) or DMSO-treated (for compound) cells. Data points represent mean ± SD values from three to five independent experiments. Half-maximal effective concentrations (EC50 values) were calculated from the Hill curve fitting to the experimental data using Origin Pro 2020 software (OriginLab). […]
of the Immune Checkpoint Blockade (ICB) assay, where 8h, 8i, and 8j were used to restore the activation of effector Jurkat-ECs. Jurkat-ECs were either kept alone, or contacted with one of the following cell lines: wild type CHO K1 cells (CHO wt), CHO K1 cells expressing TCR Activator (CHO/TCRAct), or CHO K1 cells expressing TCR Activator and […]. The cells were incubated with the indicated concentrations of the compounds for 6 hours and luminescence was measured as an indicator of TCR-dependent activation of Jurkat-ECs. The graphs present fold induction of the luminescence signal relative to DMSO-treated cells. […]

[2] = tested on: PBMCs cocultured with CHO/TCRAct/PD-L1 cells; experiment: Cytokine accumulation in culture media of the TCA assay (CBA Th1/Th2/Th17 kit); assay type: cell-based, human; conditions: TCA assay supernatants, four donors
Description: In addition to the expression of surface markers, the accumulation of immune-related cytokines in the culture media collected in the TCA assay was monitored with the cytometric bead array (CBA) human Th1/Th2/Th17 kit. […] Also, the levels of IL-6, IFN-γ, and IL-2 increased, but these increases were not statistically significant.
The concentration of the cytokines (IL-2, IL-4, IL-6, IL-10, IL-17A, IFN-γ, and TNFα) in supernatants was determined using the CBA Human Th1/Th2/Th17 kit (BD Biosciences), with data acquisition using the FACSCanto flow cytometer. The CBA beads were discriminated in FL-4 and FL-5 channels, while the concentration of specified cytokines was determined by the intensity of FL-2 fluorescence, using the respective standard reference curve and FCAP Array software (BD Biosciences). IL-4 was below the detection level and is not presented in the manuscript. Statistical significance was analyzed with one-way ANOVA using the Origin Pro 2020 software, followed by the Fisher’s posthoc test: *p < 0.05, **p < 0.01, […].

human PD-L1 = target: T1, human PD-L1 (Homo sapiens, UniProt Q9NZQ7); experiment: 1H NMR titration with human PD-L1; assay type: binding; conditions: molar ratio 1:1
T1 construct: pET-21b plasmid carrying the PD-L1 gene (amino acids 18–134); made in house; host or cells: Escherichia coli BL21
Description: NMR spectra were recorded in PBS pH 7.4 containing 10% (v/v) of D2O added to the samples to provide the lock signal. Water suppression was carried out using the WATERGATE sequence. All the spectra were recorded at 300 K using a Bruker AVANCE 600 MHz spectrometer with the cryo-platform. The spectra were recorded at the ligand/protein ratio of 1:1, unless stated otherwise. The samples were prepared by adding small amounts of a 50 mM ligand stock solution in DMSO to the protein solution (0.20 mL) of PD-L1 fragment at a concentration of 0.2 mM. Spectra were visualized using TopSpin 4.0.2.

T1 sequence (Q9NZQ7 18-134): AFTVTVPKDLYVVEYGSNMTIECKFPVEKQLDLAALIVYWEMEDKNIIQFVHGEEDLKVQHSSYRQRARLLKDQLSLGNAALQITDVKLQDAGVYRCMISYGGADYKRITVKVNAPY

SMILES: COc1cc(-c2cccc(-c3ccc4c(c3)OCCO4)c2Cl)ccc1CNC(CO)(CO)CO [8j, 2-(((3′-(Benzo-1,4-dioxan-6-yl)-2′-chloro-3-methoxy-[1,1′-biphenyl]-4-yl)methyl)amino)-2-(hydroxymethyl)propane-1,3-diol]
- activation of Jurkat-ECs where PD-L1 is absent [1]: requires the presence of PD-L1
- accumulation of immune-related cytokines in culture media [2]: significant increases observed for IL-6, TNF-α, IFN-γ, IL-10, and IL-2
- change of hPD-L1 1H NMR spectrum on adding compound (human PD-L1): broadening of the hPD-L1 proton signals
